In US20200071310A1, “N-ARYL PYRAZOLES AS NRF2 REGULATORS” (GLAXOSMITHKLINE INTELLECTUAL PROPERTY DEVELOPMENT LIMITED, priority 2016, published 2020):

Tests used:
[1] = test system: NQO1 specific enzyme activity in BEAS-2B cells; assay: BEAS-2B NQO1 MTT Assay; assay type: cell-based; details: Homo sapiens; NQO1 specific activity induction, BEAS-2B cells, 48 hours; read-out: EC50
Outline: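 BEAS-2B cells plated overnight, treated with compound for 48 h at 37° C, then lysed; NQO1 activity measured kinetically by MTT cocktail at 570 nm over 30 min, with lysate aliquot for Cell Titer Glo. pEC50 from 3-parameter fit of ΔOD/min versus log concentration.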

[2] = biological target: T1, Keap1 (321-609) Kelch domain / TAMRA-labeled NRF2 peptide (ETGE motif) (Homo sapiens, UniProt Q14145); assay: NRF2-Keap1 FP Assay; assay type: binding; details: Keap1 (321-609) 20 nM, Tamra labeled peptide 8 nM
T1 construct: the Kelch domain (321-609) of Keap1 is used
T1 sequence (Q14145 321-609): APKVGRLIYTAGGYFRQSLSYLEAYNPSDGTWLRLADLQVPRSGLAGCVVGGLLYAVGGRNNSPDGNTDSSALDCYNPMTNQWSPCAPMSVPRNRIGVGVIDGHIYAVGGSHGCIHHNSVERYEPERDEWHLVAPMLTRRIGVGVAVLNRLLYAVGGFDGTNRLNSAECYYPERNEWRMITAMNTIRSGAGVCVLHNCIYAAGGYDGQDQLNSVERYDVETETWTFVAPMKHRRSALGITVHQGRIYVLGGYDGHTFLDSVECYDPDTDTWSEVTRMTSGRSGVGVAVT
Outline: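 Fluorescence polarization competition: 20 nM Keap1 Kelch (321-609) with 8 nM TAMRA-ETGE 16mer peptide (final) in Tris pH 8.0 buffer with DTT, CHAPS, BSA; 3-fold compound series, 1 h at room temperature. mP normalized to protein+peptide (0%) and peptide-only (100%) controls; pIC50 from four-parameter fit.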

EC50 [2]: 1 to 10 µM
Compound: C[C@@H]1Cc2cc(C(F)(F)F)ccc2S(=O)(=O)N(Cc2cccc(-n3ncc(C(=O)O)c3[C@@H]3C[C@H]3c3cnn(C)c3)c2)C1 [Example 33, 1-(3-(((R)-4-methyl-1,1-dioxido-7-(trifluoromethyl)-4,5-dihydro-benzo[f][1,2]thiazepin-2(3H)-yl)methyl)phenyl)-5-(trans-2-(1-methyl-1H-pyrazol-4-yl)cyclopropyl)-1H-pyrazole-4-carboxylic acid]
EC50 [1]: 1 to 10 µM
